{"source": "paper PMC4494927", "about": "“Discovery of a small molecule targeting SET-PP2A interaction to overcome BCR-ABLT315I mutation of chronic myeloid leukemia” (Oncotarget, 2015)", "assay_in_all_cases": "In vitro kinase assay (Kinase-Glo / ADP-Glo)", "format_in_all_cases": "biochemical", "key": {"FGR": {"target": "FGR (Homo sapiens, UniProt P09769)", "details": "TGI1002 1 µM; means of two independent experiments; read-out: Inhibitory effect (%)", "protocol": "(§1) All kinase reactions were carried out in 384-well plates. After addition of the compounds, kinase and ATP-substrate were added to the assay plates successively, the assay plates were centrifuged at 1,000 x g for 1 min and incubated for 1 h at 30 °C. Then, Kinase-Glo Plus or ADP-Glo reagent was added to each well. In Kinase-Glo assay, after addition of the reagent for 20 min, the luminescence was measured on an EnVision Multilabel Plate Reader (Perkin-Elmer). In ADP-Glo assay, after addition of the reagent for 40 min, Kinase Detection Reagent was added and incubated for another 30 min at 27 °C, and then the luminescence was measured. Kinase inhibition rates were calculated per manufacturer's instructions."}, "CDK1/CyclinB": {"target": "CDK1/CyclinB (Homo sapiens, UniProt P06493)", "details": "TGI1002 1 µM; means of two independent experiments; read-out: Inhibitory effect (%)", "protocol": "as §1"}, "EGFR(T790M,L858R)": {"target": "EGFR(T790M,L858R) (Homo sapiens, UniProt P00533, L858R/T790M)", "details": "TGI1002 1 µM; means of two independent experiments; read-out: Inhibitory effect (%)", "protocol": "as §1"}, "SRC": {"target": "SRC (Homo sapiens, UniProt P12931)", "details": "TGI1002 1 µM; means of two independent experiments; read-out: Inhibitory effect (%)", "protocol": "as §1"}, "PKAcr": {"target": "PKAcr (Homo sapiens, UniProt P22612)", "details": "TGI1002 1 µM; means of two independent experiments; read-out: Inhibitory effect (%)", "protocol": "as §1"}, "EphA1": {"target": "EphA1 (Homo sapiens, UniProt P21709)", "details": "TGI1002 1 µM; means of two independent experiments; read-out: Inhibitory effect (%)", "protocol": "as §1"}, "AKT2": {"target": "AKT2 (Homo sapiens, UniProt P31751)", "details": "TGI1002 1 µM; means of two independent experiments; read-out: Inhibitory effect (%)", "protocol": "as §1"}, "RAF1": {"target": "RAF1 (Homo sapiens, UniProt P04049)", "details": "TGI1002 1 µM; means of two independent experiments; read-out: Inhibitory effect (%)", "protocol": "as §1"}, "Aurora A": {"target": "Aurora A (Homo sapiens, UniProt O14965)", "details": "TGI1002 1 µM; means of two independent experiments; read-out: Inhibitory effect (%)", "protocol": "as §1"}, "PKCξ": {"target": "PKCξ (Homo sapiens, UniProt Q05513)", "details": "TGI1002 1 µM; means of two independent experiments; read-out: Inhibitory effect (%)", "protocol": "as §1"}, "PKAcα": {"target": "PKAcα (Homo sapiens, UniProt P17612)", "details": "TGI1002 1 µM; means of two independent experiments; read-out: Inhibitory effect (%)", "protocol": "as §1"}, "NEK2": {"target": "NEK2 (Homo sapiens, UniProt P51955)", "details": "TGI1002 1 µM; means of two independent experiments; read-out: Inhibitory effect (%)", "protocol": "as §1"}, "LCK": {"target": "LCK (Homo sapiens, UniProt P06239)", "sequence (P06239 whole entry)": "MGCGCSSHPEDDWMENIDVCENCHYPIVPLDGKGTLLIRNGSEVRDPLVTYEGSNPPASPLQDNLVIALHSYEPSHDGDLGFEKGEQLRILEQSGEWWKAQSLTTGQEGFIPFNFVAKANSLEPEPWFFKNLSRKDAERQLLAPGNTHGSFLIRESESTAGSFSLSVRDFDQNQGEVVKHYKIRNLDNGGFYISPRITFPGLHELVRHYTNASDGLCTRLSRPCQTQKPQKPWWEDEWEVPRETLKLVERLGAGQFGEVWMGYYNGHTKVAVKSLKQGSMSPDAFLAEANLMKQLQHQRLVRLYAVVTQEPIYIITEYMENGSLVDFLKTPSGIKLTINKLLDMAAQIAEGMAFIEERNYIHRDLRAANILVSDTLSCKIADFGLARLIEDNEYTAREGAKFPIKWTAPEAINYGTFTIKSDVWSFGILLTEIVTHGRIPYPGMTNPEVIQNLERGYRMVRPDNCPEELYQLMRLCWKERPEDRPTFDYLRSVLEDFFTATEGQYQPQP", "details": "TGI1002 1 µM; means of two independent experiments; read-out: Inhibitory effect (%)", "protocol": "as §1"}, "c-KIT": {"target": "c-KIT (Homo sapiens, UniProt P10721)", "details": "TGI1002 1 µM; means of two independent experiments; read-out: Inhibitory effect (%)", "protocol": "as §1"}, "PI3Kα": {"target": "PI3Kα (Homo sapiens, UniProt P42336)", "sequence (P42336 whole entry)": "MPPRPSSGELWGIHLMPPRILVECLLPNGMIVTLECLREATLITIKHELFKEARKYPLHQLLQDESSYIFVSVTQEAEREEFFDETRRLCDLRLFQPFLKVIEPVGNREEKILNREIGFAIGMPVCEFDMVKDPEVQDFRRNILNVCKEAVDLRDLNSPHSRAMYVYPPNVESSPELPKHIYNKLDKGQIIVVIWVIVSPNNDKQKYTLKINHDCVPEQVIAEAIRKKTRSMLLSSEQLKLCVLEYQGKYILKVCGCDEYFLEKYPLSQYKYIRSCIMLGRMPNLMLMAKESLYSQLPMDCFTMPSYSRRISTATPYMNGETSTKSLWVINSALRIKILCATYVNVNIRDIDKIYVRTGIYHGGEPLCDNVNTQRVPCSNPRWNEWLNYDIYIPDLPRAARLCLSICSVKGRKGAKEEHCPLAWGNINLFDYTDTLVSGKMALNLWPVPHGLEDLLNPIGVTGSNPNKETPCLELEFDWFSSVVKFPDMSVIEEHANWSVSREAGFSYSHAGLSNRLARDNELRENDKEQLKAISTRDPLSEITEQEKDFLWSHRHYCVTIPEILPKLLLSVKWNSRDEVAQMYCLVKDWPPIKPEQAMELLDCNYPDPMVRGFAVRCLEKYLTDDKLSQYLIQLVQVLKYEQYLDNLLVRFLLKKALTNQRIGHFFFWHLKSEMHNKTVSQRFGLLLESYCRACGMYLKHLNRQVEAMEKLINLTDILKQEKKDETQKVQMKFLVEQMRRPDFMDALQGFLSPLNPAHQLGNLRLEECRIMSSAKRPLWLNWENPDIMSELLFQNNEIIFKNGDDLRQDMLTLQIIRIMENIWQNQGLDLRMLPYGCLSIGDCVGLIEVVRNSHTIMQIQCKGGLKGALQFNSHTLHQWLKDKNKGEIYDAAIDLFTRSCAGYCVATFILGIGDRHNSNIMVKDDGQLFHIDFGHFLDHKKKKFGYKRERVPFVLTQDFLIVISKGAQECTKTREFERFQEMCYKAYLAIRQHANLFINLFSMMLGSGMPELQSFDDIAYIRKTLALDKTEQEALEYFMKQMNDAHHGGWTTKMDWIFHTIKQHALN", "sequence (P27986 whole entry partner)": "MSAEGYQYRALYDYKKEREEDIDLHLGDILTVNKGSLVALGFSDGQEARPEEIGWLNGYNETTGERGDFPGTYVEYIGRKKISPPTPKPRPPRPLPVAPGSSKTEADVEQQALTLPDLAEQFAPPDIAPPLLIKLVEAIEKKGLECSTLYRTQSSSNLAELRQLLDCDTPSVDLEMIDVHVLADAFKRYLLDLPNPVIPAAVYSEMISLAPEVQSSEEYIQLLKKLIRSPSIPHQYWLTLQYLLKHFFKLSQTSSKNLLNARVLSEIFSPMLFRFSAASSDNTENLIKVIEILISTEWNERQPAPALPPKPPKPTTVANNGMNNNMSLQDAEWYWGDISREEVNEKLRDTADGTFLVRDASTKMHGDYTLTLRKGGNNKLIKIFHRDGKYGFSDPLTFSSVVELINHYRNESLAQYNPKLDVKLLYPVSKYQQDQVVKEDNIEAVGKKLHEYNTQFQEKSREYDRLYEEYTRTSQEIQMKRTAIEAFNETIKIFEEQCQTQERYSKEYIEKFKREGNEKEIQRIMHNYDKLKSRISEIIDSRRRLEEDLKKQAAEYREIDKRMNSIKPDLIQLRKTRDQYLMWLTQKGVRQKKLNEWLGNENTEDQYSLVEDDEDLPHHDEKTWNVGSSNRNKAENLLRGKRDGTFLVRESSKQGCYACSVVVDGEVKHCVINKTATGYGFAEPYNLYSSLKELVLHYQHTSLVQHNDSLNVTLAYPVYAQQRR", "details": "TGI1002 1 µM; means of two independent experiments; read-out: Inhibitory effect (%)", "protocol": "as §1"}, "FLT1(VEGFR1)": {"target": "FLT1(VEGFR1) (Homo sapiens, UniProt P17948)", "details": "TGI1002 1 µM; means of two independent experiments; read-out: Inhibitory effect (%)", "protocol": "as §1"}, "AXL": {"target": "AXL (Homo sapiens, UniProt P30530)", "details": "TGI1002 1 µM; means of two independent experiments; read-out: Inhibitory effect (%)", "protocol": "as §1"}, "PI3Kβ": {"target": "PI3Kβ (Homo sapiens, UniProt P42338)", "details": "TGI1002 1 µM; means of two independent experiments; read-out: Inhibitory effect (%)", "protocol": "as §1"}, "PI3Kγ": {"target": "PI3Kγ (Homo sapiens, UniProt P48736)", "details": "TGI1002 1 µM; means of two independent experiments; read-out: Inhibitory effect (%)", "protocol": "as §1"}, "AKT3": {"target": "AKT3 (Homo sapiens, UniProt Q9Y243)", "sequence (Q9Y243 whole entry)": "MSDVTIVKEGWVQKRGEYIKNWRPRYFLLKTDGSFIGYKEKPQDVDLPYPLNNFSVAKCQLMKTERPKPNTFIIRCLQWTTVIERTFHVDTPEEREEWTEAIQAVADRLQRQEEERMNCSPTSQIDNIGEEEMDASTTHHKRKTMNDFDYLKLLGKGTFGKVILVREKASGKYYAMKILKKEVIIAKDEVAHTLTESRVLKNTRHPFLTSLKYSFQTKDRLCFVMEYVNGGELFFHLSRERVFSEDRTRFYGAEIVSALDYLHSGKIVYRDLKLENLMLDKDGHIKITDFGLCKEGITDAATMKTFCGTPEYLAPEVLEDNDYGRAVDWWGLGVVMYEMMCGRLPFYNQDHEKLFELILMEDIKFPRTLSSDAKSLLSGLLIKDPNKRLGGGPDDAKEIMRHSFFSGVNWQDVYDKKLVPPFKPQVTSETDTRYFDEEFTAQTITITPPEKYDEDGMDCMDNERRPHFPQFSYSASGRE", "details": "TGI1002 1 µM; means of two independent experiments; read-out: Inhibitory effect (%)", "protocol": "as §1"}, "BRAF": {"target": "BRAF (Homo sapiens, UniProt P15056)", "details": "TGI1002 1 µM; means of two independent experiments; read-out: Inhibitory effect (%)", "protocol": "as §1"}, "EphB2": {"target": "EphB2 (Homo sapiens, UniProt P29323)", "sequence (P29323 19-1055, species assumed)": "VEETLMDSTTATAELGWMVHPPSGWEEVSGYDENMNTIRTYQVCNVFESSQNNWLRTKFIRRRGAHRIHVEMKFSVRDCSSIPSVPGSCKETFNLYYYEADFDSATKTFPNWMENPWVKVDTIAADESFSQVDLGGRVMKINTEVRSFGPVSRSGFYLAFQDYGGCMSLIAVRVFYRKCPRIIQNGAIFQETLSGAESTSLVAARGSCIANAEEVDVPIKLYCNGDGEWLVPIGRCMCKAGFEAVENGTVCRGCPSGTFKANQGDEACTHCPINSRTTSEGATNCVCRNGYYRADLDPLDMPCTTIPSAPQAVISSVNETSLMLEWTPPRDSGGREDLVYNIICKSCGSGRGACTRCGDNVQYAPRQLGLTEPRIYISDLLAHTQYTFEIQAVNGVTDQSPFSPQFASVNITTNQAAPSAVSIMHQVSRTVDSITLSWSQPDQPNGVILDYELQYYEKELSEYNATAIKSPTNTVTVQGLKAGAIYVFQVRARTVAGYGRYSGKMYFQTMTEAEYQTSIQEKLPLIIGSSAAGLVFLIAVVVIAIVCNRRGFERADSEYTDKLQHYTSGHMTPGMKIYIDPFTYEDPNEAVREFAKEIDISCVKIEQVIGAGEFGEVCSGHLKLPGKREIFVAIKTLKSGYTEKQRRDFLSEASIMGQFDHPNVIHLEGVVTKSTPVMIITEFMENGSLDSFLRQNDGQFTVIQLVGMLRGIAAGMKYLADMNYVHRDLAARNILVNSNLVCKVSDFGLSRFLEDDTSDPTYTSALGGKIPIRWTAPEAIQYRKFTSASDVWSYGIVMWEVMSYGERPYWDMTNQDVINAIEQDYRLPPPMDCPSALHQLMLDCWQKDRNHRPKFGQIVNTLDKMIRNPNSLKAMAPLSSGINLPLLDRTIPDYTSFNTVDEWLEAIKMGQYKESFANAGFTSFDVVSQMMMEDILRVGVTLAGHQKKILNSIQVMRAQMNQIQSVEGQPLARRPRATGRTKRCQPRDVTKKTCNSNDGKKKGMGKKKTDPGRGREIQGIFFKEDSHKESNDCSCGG", "protocol": "as §1"}, "AKT1": {"target": "AKT1 (Homo sapiens, UniProt P31749)", "details": "TGI1002 1 µM; means of two independent experiments; read-out: Inhibitory effect (%)", "protocol": "as §1"}, "CDK1/CyclinA2": {"target": "CDK1/CyclinA2 (Homo sapiens, UniProt P06493)", "details": "TGI1002 1 µM; means of two independent experiments; read-out: Inhibitory effect (%)", "protocol": "as §1"}, "RON": {"target": "RON (Homo sapiens, UniProt Q04912)", "details": "TGI1002 1 µM; means of two independent experiments; read-out: Inhibitory effect (%)", "protocol": "as §1"}, "PKAcβ": {"target": "PKAcβ (Homo sapiens, UniProt P22694)", "details": "TGI1002 1 µM; means of two independent experiments; read-out: Inhibitory effect (%)", "protocol": "as §1"}, "RET": {"target": "RET (Homo sapiens, UniProt P07949)", "details": "TGI1002 1 µM; means of two independent experiments; read-out: Inhibitory effect (%)", "protocol": "as §1"}, "TrkB": {"target": "TrkB (Homo sapiens, UniProt Q16620)", "details": "TGI1002 1 µM; means of two independent experiments; read-out: Inhibitory effect (%)", "protocol": "as §1"}, "PKCα": {"target": "PKCα (Homo sapiens, UniProt P17252)", "details": "TGI1002 1 µM; means of two independent experiments; read-out: Inhibitory effect (%)", "protocol": "as §1"}, "ABL2": {"target": "ABL2 (Homo sapiens, UniProt P42684)", "details": "TGI1002 1 µM; means of two independent experiments; read-out: Inhibitory effect (%)", "protocol": "as §1"}, "BLK": {"target": "BLK (Homo sapiens, UniProt P51451)", "details": "TGI1002 1 µM; means of two independent experiments; read-out: Inhibitory effect (%)", "protocol": "as §1"}, "c-KIT(V654A)": {"target": "c-KIT(V654A) (Homo sapiens, UniProt P10721, V654A)", "details": "TGI1002 1 µM; means of two independent experiments; read-out: Inhibitory effect (%)", "protocol": "as §1"}, "TrkA": {"target": "TrkA (Homo sapiens, UniProt P04629)", "details": "TGI1002 1 µM; means of two independent experiments; read-out: Inhibitory effect (%)", "protocol": "as §1"}, "CHK1": {"target": "CHK1 (Homo sapiens, UniProt O14757)", "details": "TGI1002 1 µM; means of two independent experiments; read-out: Inhibitory effect (%)", "protocol": "as §1"}, "PDGFRα": {"target": "PDGFRα (Homo sapiens, UniProt P16234)", "sequence (P16234 24-1089, species assumed)": "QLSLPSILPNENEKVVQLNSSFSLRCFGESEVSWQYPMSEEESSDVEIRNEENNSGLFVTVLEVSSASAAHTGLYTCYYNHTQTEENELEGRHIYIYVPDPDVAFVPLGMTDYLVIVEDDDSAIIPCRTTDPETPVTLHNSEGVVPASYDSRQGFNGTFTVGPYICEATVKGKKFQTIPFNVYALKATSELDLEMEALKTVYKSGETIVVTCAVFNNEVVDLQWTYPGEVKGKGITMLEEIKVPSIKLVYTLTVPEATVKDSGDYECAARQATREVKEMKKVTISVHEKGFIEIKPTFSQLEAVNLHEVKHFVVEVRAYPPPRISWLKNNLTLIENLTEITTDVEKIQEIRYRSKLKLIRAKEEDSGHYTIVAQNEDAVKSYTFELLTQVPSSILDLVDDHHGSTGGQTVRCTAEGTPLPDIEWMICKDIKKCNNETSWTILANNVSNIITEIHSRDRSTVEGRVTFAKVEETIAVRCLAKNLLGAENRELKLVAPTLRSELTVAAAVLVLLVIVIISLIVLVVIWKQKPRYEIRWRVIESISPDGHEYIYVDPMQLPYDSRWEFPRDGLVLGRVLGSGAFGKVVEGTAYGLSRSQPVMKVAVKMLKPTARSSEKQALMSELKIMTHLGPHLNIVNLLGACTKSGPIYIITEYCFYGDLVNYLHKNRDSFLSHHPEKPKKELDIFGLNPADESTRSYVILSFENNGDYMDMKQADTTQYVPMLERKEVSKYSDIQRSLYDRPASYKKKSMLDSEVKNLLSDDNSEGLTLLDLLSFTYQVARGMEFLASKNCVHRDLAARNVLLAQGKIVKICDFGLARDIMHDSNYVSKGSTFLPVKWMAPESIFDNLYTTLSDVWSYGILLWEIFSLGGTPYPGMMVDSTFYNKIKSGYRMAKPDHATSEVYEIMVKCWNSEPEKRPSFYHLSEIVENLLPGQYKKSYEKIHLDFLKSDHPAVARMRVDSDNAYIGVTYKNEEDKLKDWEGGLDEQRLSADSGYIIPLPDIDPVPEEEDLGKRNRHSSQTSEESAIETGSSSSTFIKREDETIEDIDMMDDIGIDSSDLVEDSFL", "protocol": "as §1"}, "BRAF(v599E)": {"target": "BRAF(v599E) (Homo sapiens, UniProt P15056, V600E)", "details": "TGI1002 1 µM; means of two independent experiments; read-out: Inhibitory effect (%)", "protocol": "as §1"}, "FLT3": {"target": "FLT3 (Homo sapiens, UniProt P36888)", "details": "TGI1002 1 µM; means of two independent experiments; read-out: Inhibitory effect (%)", "protocol": "as §1"}, "CAMK1": {"target": "CAMK1 (Homo sapiens, UniProt Q14012)", "details": "TGI1002 1 µM; means of two independent experiments; read-out: Inhibitory effect (%)", "protocol": "as §1"}, "EGFR": {"target": "EGFR (Homo sapiens, UniProt P00533)", "details": "TGI1002 1 µM; means of two independent experiments; read-out: Inhibitory effect (%)", "protocol": "as §1"}, "[1]": {"details": "TGI1002 1 µM, means of two independent experiments, read-out: Inhibitory effect (%)"}}, "data": [{"smiles": "Cc1ccc(NC(=O)c2cccc(CN3CCN(C)CC3)c2)cc1Oc1nccc(-c2cccnc2)n1.Cl", "note": "[TGI1002, N-(4-methyl-3-((4-(pyridin-3-yl)-pyrimidin-2-yl)oxy)phenyl)-3-((4-methylpiperazin-1-yl)methyl)benzamide hydrochloride]", "values": [{"measurement": "inhibition at 1 µM", "setting": "FGR", "value": 7.53, "unit": "%"}, {"measurement": "inhibition at 1 µM", "setting": "CDK1/CyclinB", "value": 3.24, "unit": "%"}, {"measurement": "inhibition at 1 µM", "setting": "EGFR(T790M,L858R)", "value": 8.74, "unit": "%"}, {"measurement": "inhibition at 1 µM", "setting": "SRC", "value": 1.09, "unit": "%"}, {"measurement": "inhibition at 1 µM", "setting": "PKAcr", "value": 1.45, "unit": "%"}, {"measurement": "inhibition at 1 µM", "setting": "EphA1", "value": 1.58, "unit": "%"}, {"measurement": "inhibition at 1 µM", "setting": "AKT2", "value": 4.72, "unit": "%"}, {"measurement": "inhibition at 1 µM", "setting": "RAF1", "value": 5.37, "unit": "%"}, {"measurement": "inhibition at 1 µM", "setting": "Aurora A", "value": 24.6, "unit": "%"}, {"measurement": "inhibition at 1 µM", "setting": "PKCξ", "value": 13.3, "unit": "%"}, {"measurement": "inhibition at 1 µM", "setting": "PKAcα", "value": 5.96, "unit": "%"}, {"measurement": "inhibition at 1 µM", "setting": "NEK2", "value": 1.56, "unit": "%"}, {"measurement": "inhibition at 1 µM", "setting": "LCK", "value": 5.82, "unit": "%"}, {"measurement": "inhibition at 1 µM", "setting": "c-KIT", "value": 15.2, "unit": "%"}, {"measurement": "inhibition at 1 µM", "setting": "PI3Kα", "value": 2.66, "unit": "%"}, {"measurement": "inhibition at 1 µM", "setting": "FLT1(VEGFR1)", "value": 1.97, "unit": "%"}, {"measurement": "inhibition at 1 µM", "setting": "AXL", "value": 3.03, "unit": "%"}, {"measurement": "inhibition at 1 µM", "setting": "PI3Kβ", "value": 0, "unit": "%"}, {"measurement": "inhibition at 1 µM", "setting": "PI3Kγ", "value": 2.65, "unit": "%"}, {"measurement": "inhibition at 1 µM", "setting": "AKT3", "value": 3.62, "unit": "%"}, {"measurement": "inhibition at 1 µM", "setting": "BRAF", "value": 2.3, "unit": "%"}, {"measurement": "IC50", "setting": "EphB2; EphB2 kinase activity", "value": 1270, "unit": "nM"}, {"measurement": "inhibition at 1 µM", "setting": "EphB2; [1]", "value": 46.7, "unit": "%"}, {"measurement": "inhibition at 1 µM", "setting": "AKT1", "value": 5.07, "unit": "%"}, {"measurement": "inhibition at 1 µM", "setting": "CDK1/CyclinA2", "value": 5.27, "unit": "%"}, {"measurement": "inhibition at 1 µM", "setting": "RON", "value": 0.14, "unit": "%"}, {"measurement": "inhibition at 1 µM", "setting": "PKAcβ", "value": 6.5, "unit": "%"}, {"measurement": "inhibition at 1 µM", "setting": "RET", "value": 12.2, "unit": "%"}, {"measurement": "inhibition at 1 µM", "setting": "TrkB", "value": 5.58, "unit": "%"}, {"measurement": "inhibition at 1 µM", "setting": "PKCα", "value": 5.57, "unit": "%"}, {"measurement": "inhibition at 1 µM", "setting": "ABL2", "value": 19.2, "unit": "%"}, {"measurement": "inhibition at 1 µM", "setting": "BLK", "value": 3.39, "unit": "%"}, {"measurement": "inhibition at 1 µM", "setting": "c-KIT(V654A)", "value": 11.7, "unit": "%"}, {"measurement": "inhibition at 1 µM", "setting": "TrkA", "value": 3.11, "unit": "%"}, {"measurement": "inhibition at 1 µM", "setting": "CHK1", "value": 3.61, "unit": "%"}, {"measurement": "IC50", "setting": "PDGFRα; PDGFRα kinase activity", "value": 3280, "unit": "nM"}, {"measurement": "inhibition at 1 µM", "setting": "PDGFRα; [1]", "value": 43.5, "unit": "%"}, {"measurement": "inhibition at 1 µM", "setting": "BRAF(v599E)", "value": 3.61, "unit": "%"}, {"measurement": "inhibition at 1 µM", "setting": "FLT3", "value": 2.97, "unit": "%"}, {"measurement": "inhibition at 1 µM", "setting": "CAMK1", "value": 4.93, "unit": "%"}, {"measurement": "inhibition at 1 µM", "setting": "EGFR", "value": 0, "unit": "%"}]}]}
